IC50 data for six compounds are collected here from BindingDB's records for doi:10.1021/jm9705723 (Wayne State University School of Medicine, 1998).

By pIC50 is commonly meant the negative decadic logarithm of the IC50, by convention in mol/L. Low readings indicate a large IC50, high ones a small IC50.

Test [1] can be described thus: Inhibitory concentration against human immunodeficiency virus type 1 (HIV-1 strain IIIB RT) reverse transcriptase was determined by triplicate assay at high (~1 pfu/cell) multiplicity of […] (moi).
Test [2] can be described thus: Inhibitory concentration against human immunodeficiency virus type 1 (HIV-1 strain IIIB RT) reverse transcriptase was determined by triplicate assay at low (~0.1 pfu/cell) multiplicity of […] (moi).

pIC50: −log10 of the molar value. Bounds are passed on as bounds.

Regarding `Cc1cn([C@H]2C[C@H](N=[N+]=[N-])[C@@H](CO)O2)c(=O)[nH]c1=O` [1-((2R,4S,5S)-4-Azido-5-hydroxymethyl-tetrahydro-furan-2-yl)-5-methyl-1H-pyrimidine-2,4-dione], the pIC50 was 7.77 in test [1] and 8.52 in test [2].

For `Nc1nc2c(ncn2/C=C2\CC2CO)c(=O)[nH]1` (stereo unspecified) [2-Amino-9-[2-hydroxymethyl-cycloprop-(E)-ylidenemethyl]-1,9-dihydro-purin-6-one], the pIC50 in test [1] was below 4.52; in test [2], 5.72.

As to `Nc1nc2c(ncn2/C=C2/CC2CO)c(=O)[nH]1` (stereo unspecified) [2-Amino-9-[2-hydroxymethyl-cycloprop-(Z)-ylidenemethyl]-1,9-dihydro-purin-6-one], the pIC50 is below 4.52 in test [1] and 5.96 in test [2].

For `Nc1ncnc2c1ncn2/C=C1/CC1CO` (stereo unspecified) [[2-(6-Amino-purin-9-ylmethylene)-cyclopropyl]-methanol], the pIC50 in test [1] is 4.70; in test [2] it was 6.10.

Compound `Nc1nc(Cl)c2ncn(/C=C3\CC3CO)c2n1` (stereo unspecified) [{2-[1-(2-Amino-6-chloro-purin-9-yl)-meth-(E)-ylidene]-cyclopropyl}-methanol] had a pIC50 in test [2] below 4.00.

For the compound `Nc1ncnc2c1ncn2/C=C1\CC1CO` (stereo unspecified) [{2-[1-(6-Amino-purin-9-yl)-meth-(E)-ylidene]-cyclopropyl}-methanol], the pIC50 was below 4.00 in test [1] and 4.85 in test [2].
